Test: Strength and degradation profile of tigecycline 20 mg/mL bulk solutions by reversed phase HPLC (effect of temperature, time, pH, dissolved oxygen; Runs A to O)
Assay type: physicochemical
Details: 20 mg/mL
Procedure: The contents of the sample vials are dissolved in diluent. The sample solution is diluted, if necessary, and chromatographed on a reversed phase column using gradient elution. Impurities are determined by comparing the impurity peak areas in the sample preparation chromatogram to the average area of tigecycline peaks in the standard preparation chromatograms obtained concomitantly.
Chromatographic Column—Length about 15 cm, inside diameter about 4.6 mm, packed with Inertsil ODS2, 5 μm size particles or equivalent.
Detector—Ultraviolet spectrophotometric detector capable of operating at 248 nm with a sensitivity of about 0.5 absorbance units full scale.
The results of additional studies to investigate the effect of processing parameters such as temperature, time, and dissolved oxygen content on the purity profile of tigecycline solutions using the following materials, methods and procedures are presented in Tables A to O.
The experiments were run in plastic glove bags under normal laboratory light conditions. Plastic glove boxes will be used to control the headspace of the beakers. The batch size was 200 mL. • 1. Prepare the glove bag with a mixture of nitrogen and air to achieve an oxygen level in the solution as per the design. • 2. Place the jacketed beaker on the magnetic stirrer. Connect it to the cooler. Set the cooler to the desired set point. • 3. Add 200 mL of SWFI in to the beaker. Allow equilibrating. Measure the temperature and oxygen content. When it reaches the desired condition, add accurately weighed API and mix until dissolved. If necessary use spatula to aid dissolution. For pH adjustments, use 4 mL of either 0.1N NaOH or 0.1N HCl and 196 mL of WFI for manufacture. • 4. After complete dissolution, Transfer about 5.5 mL of Solution in vials and stopper them. These vials will be stoppered at the appropriate headspace conditions. Place the vials in appropriate temperature conditions. • 5. Sample the vials at 1, 4, 8, 10, 12 and 24 hours. Send the samples for analysis. Freeze the 10, 12 and 24 samples at −20° C. for analysis the following day. • 6. Measure pH and record color of the solution at each time point. Results
The 1-hour samples were taken directly from the beakers. Samples for later time points were collected in stoppered vials processed in the atmosphere of the bag in order to simulate the headspace conditions then placed in water baths or refrigerator to maintain there respective temperature conditions. This was done to maintain safety in the lab. Disposable plastic glove bags require constant flow of a mixture of nitrogen and air to maintain headspace oxygen level that will result in the desired dissolved oxygen (DO) content in the sample. The pH of samples was measured at each sample points.
Strength and degradation profile was analyzed by HPLC as described above. […] Degradation was slightly higher at higher temperature condition.

[1] = Run #I, 5° C., pH 7.9, Oxygen 1.0 mg/L, hours 1,4,8,10,12,24 at r6-r11, 24 h
[2] = Run #I, 5° C., pH 7.9, Oxygen 1.0 mg/L, hours 1,4,8,10,12,24 at r17-r22
[3] = Run #I, 5° C., pH 7.9, Oxygen 1.0 mg/L, hours 1,4,8,10,12,24 at r17-r22, 1 h
[4] = Run #I, 5° C., pH 7.9, Oxygen 1.0 mg/L, hours 1,4,8,10,12,24 at r17-r22, 4 h
[5] = Run #I, 5° C., pH 7.9, Oxygen 1.0 mg/L, hours 1,4,8,10,12,24 at r17-r22, 8 h
[6] = Run #I, 5° C., pH 7.9, Oxygen 1.0 mg/L, hours 1,4,8,10,12,24 at r17-r22, 10 h
[7] = Run #I, 5° C., pH 7.9, Oxygen 1.0 mg/L, hours 1,4,8,10,12,24 at r17-r22, 24 h
[8] = Run #J, 8° C., Oxygen = 1.0 mg/mL, hours 1,4,8,12,24 at r6-r10, 1 hours
[9] = Run #J, 8° C., Oxygen = 1.0 mg/mL, hours 1,4,8,12,24 at r6-r10, 4 hours
[10] = Run #J, 8° C., Oxygen = 1.0 mg/mL, hours 1,4,8,12,24 at r6-r10, 8 hours
[11] = Run #J, 8° C., Oxygen = 1.0 mg/mL, hours 1,4,8,12,24 at r6-r10, 12 hours
[12] = Run #J, 8° C., Oxygen = 1.0 mg/mL, hours 1,4,8,12,24 at r6-r10, 24 hours
[13] = Run #J, 8° C., hours 1,4,8,12,24 at r6-r10, 1 hours
[14] = Run #J, 8° C., hours 1,4,8,12,24 at r6-r10, 4 hours
[15] = Run #J, 8° C., hours 1,4,8,12,24 at r6-r10, 8 hours
[16] = Run #J, 8° C., hours 1,4,8,12,24 at r6-r10, 12 hours
[17] = Run #J, 8° C., hours 1,4,8,12,24 at r6-r10, 24 hours
[18] = Run #K, 2° C., pH 8.2, Oxygen 0.1 mg/L, hours 1,4,8,10,12,24 at r6-r11
[19] = Run #K, 2° C., pH 8.2, Oxygen 0.1 mg/L, hours 1,4,8,10,12,24 at r6-r11, after 1 hours
[20] = Run #K, 2° C., pH 8.2, Oxygen 0.1 mg/L, hours 1,4,8,10,12,24 at r6-r11, after 4 hours
[21] = Run #K, 2° C., pH 8.2, Oxygen 0.1 mg/L, hours 1,4,8,10,12,24 at r6-r11, after 8 hours
[22] = Run #K, 2° C., pH 8.2, Oxygen 0.1 mg/L, hours 1,4,8,10,12,24 at r6-r11, after 10 hours
[23] = Run #K, 2° C., pH 8.2, Oxygen 0.1 mg/L, hours 1,4,8,10,12,24 at r6-r11, after 12 hours

SMILES: CN(C)c1cc(NC(=O)CNC(C)(C)C)c(O)c2c1C[C@H]1C[C@H]3[C@H](N(C)C)C(O)=C(C(N)=O)C(=O)[C@@]3(O)C(O)=C1C2=O [Tigecycline]
- Strength (Run #I, 5° C., pH 7.9, Oxygen 1.0 mg/L, hours 1,4,8,10,12,24 at r6-r11, 12 h): 19.151 mg/mL
- RRT 0.58 [1]: 0.10%
- RRT 0.74 Epimer [1]: 0.23%
- Strength [1]: 19.242 mg/mL
- RRT 0.78 MW = 557 [2]: BRL (BRL means below reporting limit (meaning less than 0.05% of tigecycline peak))
- RRT 1.12 [2]: BRL (BRL means below reporting limit (meaning less than 0.05% of tigecycline peak))
- RRT 1.64 Mino [3]: 0.13%
- RRT 1.85 MW = 597 [3]: 0.06%
- Total [3]: 0.54%
- RRT 1.64 Mino [4]: 0.10%
- RRT 1.85 MW = 597 [4]: 0.09%
- RRT 1.64 Mino [5]: 0.09%
- RRT 1.85 MW = 597 [5]: 0.08%
- Total [5]: 0.53%
- RRT 1.64 Mino [6]: 0.08%
- RRT 1.85 MW = 597 [6]: 0.10%
- Total [6]: 0.98%
- Total (Run #I, 5° C., pH 7.9, Oxygen 1.0 mg/L, hours 1,4,8,10,12,24 at r17-r22, 12 h): 0.71%
- RRT 1.64 Mino [7]: 0.11%
- Total [7]: 0.96%
- RRT 1.67 MW = 556 [8]: 0.09%
- Strength [8]: 19.515 mg/mL
- RRT 1.67 MW = 556 [9]: 0.17%
- Strength [9]: 19.469 mg/mL
- RRT 1.67 MW = 556 [10]: 0.15%
- Strength [10]: 19.323 mg/mL
- RRT 1.67 MW = 556 [11]: 0.19%
- Strength [11]: 19.140 mg/mL
- RRT 1.67 MW = 556 [12]: 0.21%
- Strength [12]: 19.152 mg/mL
- RRT 0.58 [13]: 0.06%
- RRT 0.74 Epimer [13]: 0.20%
- RRT 1.45 [13]: 0.08%
- RRT 1.85 MW = 597 [13]: 0.09%
- Total [13]: 0.62%
- RRT 0.74 Epimer [14]: 0.22%
- RRT 1.45 [14]: 0.06%
- RRT 1.64 Mino [14]: 0.09%
- RRT 1.85 MW = 597 [14]: 0.08%
- Total [14]: 0.90%
- RRT 1.45 [15]: 0.07%
- Total [15]: 1.00%
- RRT 0.74 Epimer [16]: 0.24%
- RRT 1.64 Mino [16]: 0.10%
- RRT 1.85 MW = 597 [16]: 0.11%
- Total [16]: 1.17%
- RRT 0.58 [17]: 0.08%
- RRT 0.74 Epimer [17]: 0.28%
- RRT 1.45 [17]: 0.05%
- RRT 1.64 Mino [17]: 0.11%
- RRT 1.85 MW = 597 [17]: 0.10%
- Total [17]: 1.76%
- RRT 0.12 MW = 633 [18]: BRL (BRL means below reporting limit (meaning less than 0.05% of tigecycline peak))
- RRT 0.23 MW = 572 [18]: BRL (BRL means below reporting limit (meaning less than 0.05% of tigecycline peak))
- RRT 0.50 MW = 601 [18]: BRL (BRL means below reporting limit (meaning less than 0.05% of tigecycline peak))
- RRT 0.55 MW = 583 [18]: BRL (BRL means below reporting limit (meaning less than 0.05% of tigecycline peak))
- RRT 0.64 9-Amino [18]: BRL (BRL means below reporting limit (meaning less than 0.05% of tigecycline peak))
- RRT 0.78 MW = 557 [18]: BRL (BRL means below reporting limit (meaning less than 0.05% of tigecycline peak))
- RRT 1.12 [18]: BRL (BRL means below reporting limit (meaning less than 0.05% of tigecycline peak))
- RRT 1.58 [18]: BRL (BRL means below reporting limit (meaning less than 0.05% of tigecycline peak))
- RRT 1.67 MW = 556 [18]: BRL (BRL means below reporting limit (meaning less than 0.05% of tigecycline peak))
- RRT 0.74 Epimer [19]: 0.16%
- RRT 1.64 Mino [19]: 0.12%
- Strength [19]: 19.187 mg/mL
- Total [19]: 0.51%
- RRT 0.74 Epimer [20]: 0.18%
- RRT 1.64 Mino [20]: 0.13%
- Strength [20]: 19.324 mg/mL
- Total [20]: 0.61%
- RRT 0.58 [21]: 0.07%
- Strength [21]: 19.127 mg/mL
- Total [21]: 0.63%
- RRT 0.74 Epimer [22]: 0.19%
- RRT 1.64 Mino [22]: 0.15%
- RRT 1.85 MW = 597 [22]: 0.10%
- Strength [22]: 20.357 mg/mL
- Total [22]: 0.59%
- RRT 0.58 [23]: 0.08%
- RRT 0.74 Epimer [23]: 0.22%
- RRT 1.45 [23]: 0.09%
- RRT 1.64 Mino [23]: 0.10%
- RRT 1.85 MW = 597 [23]: 0.09%
- Strength [23]: 19.956 mg/mL
- Total [23]: 0.56%
